Test results reported in ChEMBL document CHEMBL4043090 (Bioorg Med Chem, 2017).
pIC50: −log10 of the molar value.

Assays:
[1] = Cytotoxicity against human MAGI-CCR5 cells assessed as reduction in cell viability after 48 hrs by MTS assay; type: cell-based; settings: read-out: TC50
[2] = system: Human immunodeficiency virus 1; assay: Antiviral activity against HIV-1 Bal infected in human MAGI-CCR5 cells assessed as reduction in viral infection after 48 hrs by fluorescence based beta-galactosidase reporter gene assay; type: functional, cell-based; settings: for pIC50 / IC90: Human immunodeficiency virus 1, Bal, MAGI-CCR5, 48 h
[3] = Therapeutic index, ratio of TC50 for human MAGI-CCR5 cells to IC50 for HIV-1 Bal infected in MAGI-CCR5 cells
PBMC = assay: Antiviral activity against HIV-1 Bal infected in human PBMC by MTS assay; type: functional, cell-based
[4] = Cytotoxicity against human PBMC assessed as reduction in cell viability by MTS assay; type: cell-based; settings: read-out: TC50 (the source's name)
[5] = Therapeutic index, ratio of TC50 for human PBMC to IC50 for HIV-1 Bal infected in human PBMC
[6] = Metabolic stability in rat plasma assessed as compound remaining at 100 uM after 1 hr by LC/MS analysis; type: ADME, cell-free; settings: read-out: Stability
[7] = Metabolic stability in rat liver microsomes assessed as compound remaining at 4 uM preincubated for 5 mins followed by NADPH addition measured after 60 mins by LC/MS analysis; type: ADME, microsome; settings: read-out: Stability
[8] = Therapeutic index, ratio of TC50 for human MAGI-CCR5 cells to IC50 for HIV-1 NL4-3 infected in MAGI-CCR5 cells
[9] = system: Human immunodeficiency virus 1; type: functional, cell-based; settings: Human immunodeficiency virus 1, A17, MAGI-CCR5, 48 h
[10] = system: Human immunodeficiency virus 1; assay: microbe, parasite or virus in culture; settings: Human immunodeficiency virus 1, NL4-3, MAGI-CCR5, 48 h
Description: Antiviral activity against wild type HIV-1 NL4-3 infected in human MAGI-CCR5 cells assessed as reduction in viral infection after 48 hrs by fluorescence based beta-galactosidase reporter gene assay

SMILES | CC50 at 48 h [1] | Activity [2] | pIC50 [2] | IC90 [2] | TI [3] | pIC50 (PBMC) | IC90 (PBMC) | CC50 [4] | TI [5] | remaining at 1 h, 100 µM [6] | remaining at 1 h, 4 µM [7] | TI [8] | pIC50 [9] | IC90 [9] | pIC50 [10] | IC90 [10]
CC1=C(c2nc(-c3ccc(C#N)cc3)cs2)C(c2ccc(Br)nc2)NC(=O)N1 (stereo not given) | > 100 µM | Dose-dependent effect | 6.46 | 1.4 µM | 286 | 6.68 | 0.57 µM | > 100 µM | 476 | 98.3% | 67.6% | >200 | < 4.00 | > 100 µM | 6.30 | 3.2 µM
COc1ccc(C2NC(=O)NC(C)=C2c2nc(-c3ccc(C#N)cc3)cs2)cn1 (stereo not given) | > 10 µM | Dose-dependent effect | 7.00 | 0.58 µM | 100 | 6.92 | 0.43 µM | > 100 µM | 833 | 100% | 69.4% | >313 | < 4.00 | > 100 µM | > 6.49 | 1.9 µM
COc1ccc(C2NC(=O)NC(C)=C2c2nc(-c3ccc(C#N)cc3)cs2)cc1 (stereo not given) | 7 µM | Dose-dependent effect | 7.10 | 0.37 µM | 88 | 6.92 | 0.3 µM | 76.6 µM | 638 | 96% | 63.1% | 110 | 5.47 | 24 µM | 7.30 | 0.62 µM
CC1=C(c2nc(-c3ccc(C#N)cc3)cs2)C(c2ccc(Cl)nc2)NC(=O)N1 (stereo not given) | > 100 µM | Dose-dependent effect | 6.32 | 2.4 µM | 208 | 6.42 | 0.94 µM | > 100 µM | 263 | 91.7% | 63.4% | – | – | – | – | –
CC1=C(c2nc(-c3ccc(C#N)cc3)cs2)C(c2cccc(O)c2)NC(=O)N1 (stereo not given) | 98 µM | Dose-dependent effect | 6.36 | 2.1 µM | 223 | 6.72 | 0.66 µM | 84 µM | 442 | 88.5% | 52.4% | – | – | – | – | –
CC1=C(c2nc(-c3ccc(F)cc3)cs2)C(c2cccc(O)c2)NC(=O)N1 (stereo not given) | 60 µM | Dose-dependent effect | 5.42 | 50 µM | 16 | 5.10 | 18 µM | 58 µM | 7.3 | – | – | – | – | – | – | –
CC1=C(c2nc(-c3ccc(C#N)cc3)cs2)C(c2ccc(Oc3ccccc3)nc2)NC(=O)N1 (stereo not given) | > 100 µM | Dose-dependent effect | 6.19 | 2.8 µM | 156 | 5.92 | 3.4 µM | 67.5 µM | 56 | – | – | – | – | – | – | –
CC1=C(c2nc(-c3ccc(C#N)cc3)cs2)C(c2ccc(Cl)nc2Cl)NC(=O)N1 (stereo not given) | > 100 µM | Dose-dependent effect | 6.07 | 5.8 µM | 116 | 5.72 | 5.7 µM | 99.1 µM | 52 | – | – | – | – | – | – | –
CC1=C(c2nc(-c3ccc(Cl)cc3)cs2)C(c2cccc(O)c2)NC(=O)N1 (stereo not given) | 55 µM | Dose-dependent effect | 5.72 | 11 µM | 29 | 5.89 | 4.1 µM | 65 µM | 50 | – | – | – | – | – | – | –
COc1ncccc1C1NC(=O)NC(C)=C1c1nc(-c2ccc(C#N)cc2)cs1 (stereo not given) | > 100 µM | Dose-dependent effect | 5.42 | 66 µM | 26 | 5.59 | 7.3 µM | > 100 µM | 39 | – | – | – | – | – | – | –
CC1=C(c2nc(-c3ccc(C#N)cc3)cs2)C(c2cc3ccccc3[nH]2)NC(=O)N1 (stereo not given) | 50.5 µM | Dose-dependent effect | 5.68 | 10.4 µM | 24 | 5.46 | 10.8 µM | 69.8 µM | 20 | – | – | – | – | – | – | –
CC1=C(c2nc(-c3cccc(C#N)c3)cs2)C(c2ccc(O)cc2)NC(=O)N1 (stereo not given) | 69.6 µM | Dose-dependent effect | 5.36 | 40.9 µM | 16 | 5.48 | 10.2 µM | 87.5 µM | 27 | – | – | – | – | – | – | –
CC1=C(c2nc(-c3ccc(C#N)cc3)cs2)C(c2ccc(C(F)(F)F)nc2)NC(=O)N1 (stereo not given) | > 100 µM | Dose-dependent effect | 5.96 | 7.3 µM | 91 | 5.92 | 4.6 µM | > 100 µM | 83 | – | – | >116 | < 4.00 | > 100 µM | 6.07 | 7.7 µM
CC1=C(c2nc(-c3ccccc3)cs2)C(c2cccc(O)c2)NC(=O)N1 (stereo not given) | > 100 µM | Dose-dependent effect | 4.10 | > 100 µM | 1.3 | 4.43 | 81 µM | 76 µM | 2 | – | – | – | – | – | – | –
CC1=C(c2nc(-c3ccc(C#N)cc3)cs2)C(c2ccc3ccccc3n2)NC(=O)N1 (stereo not given) | > 100 µM | Dose-dependent effect | 5.82 | 12.7 µM | 67 | 5.89 | 5.5 µM | > 100 µM | 77 | – | – | – | – | – | – | –
CC1=C(c2nc(-c3ccc(C#N)cc3)cs2)C(c2ccc(O)cc2)NC(=O)N1 (stereo not given) | > 10 µM | Dose-dependent effect | 7.40 | 0.52 µM | 250 | 7.40 | 0.12 µM | > 100 µM | 2500 | 100% | 100% | 765 | 4.55 | 95 µM | 7.22 | 0.62 µM
CC1=C(c2nc(-c3ccc(C#N)cc3)cs2)C(c2cccc(OC(F)(F)F)c2)NC(=O)N1 (stereo not given) | > 100 µM | Dose-dependent effect | 5.62 | 69.8 µM | 42 | 4.39 | > 100 µM | > 100 µM | 2.4 | – | – | – | – | – | – | –
